Each structure is given as a SMILES string.

Assay [1] addresses Serine/threonine-protein kinase pim-2 (Homo sapiens) (UniProt Q9P1W9). Briefly: Pim-2(h) Eurofins kinase panel. The following applies: Compound concentration 1.0 uM.
Assay [2] addresses T1, Serine/threonine-protein kinase NLK (Homo sapiens) (UniProt Q9UBE8).
T1 sequence (whole entry): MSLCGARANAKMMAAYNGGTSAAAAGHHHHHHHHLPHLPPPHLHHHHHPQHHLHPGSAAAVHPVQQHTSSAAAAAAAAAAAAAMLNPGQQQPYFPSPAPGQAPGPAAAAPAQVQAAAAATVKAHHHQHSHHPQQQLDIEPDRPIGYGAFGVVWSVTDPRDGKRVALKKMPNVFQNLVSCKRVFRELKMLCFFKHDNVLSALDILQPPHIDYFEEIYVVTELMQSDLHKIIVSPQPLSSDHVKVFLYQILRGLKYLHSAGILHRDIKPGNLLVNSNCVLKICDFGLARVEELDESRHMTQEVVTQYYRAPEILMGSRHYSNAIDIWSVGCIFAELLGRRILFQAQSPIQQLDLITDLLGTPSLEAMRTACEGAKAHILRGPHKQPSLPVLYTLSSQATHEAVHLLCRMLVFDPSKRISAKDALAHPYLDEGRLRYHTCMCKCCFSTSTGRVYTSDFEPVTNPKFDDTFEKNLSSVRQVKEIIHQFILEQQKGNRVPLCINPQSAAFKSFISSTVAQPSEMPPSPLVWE
Briefly: NLK(h) Eurofins kinase panel. The settings on record: Compound concentration 1.0 uM.

Assay [3] has as its target Mitogen-activated protein kinase 11 (Homo sapiens) (UniProt Q15759). Briefly: SAPK2b(h) Eurofins kinase panel. The settings on record: Compound concentration 1.0 uM.
Assay [4] has as its target PI3K p110 beta/p85 alpha (Homo sapiens) (UniProt P27986+P42338). Briefly: PI3 Kinase(p110b/p85a)(h) Eurofins kinase panel. The class given is protein-complex assay. The following applies: Compound concentration 1.0 uM.
In assay [5] the target is ALK tyrosine kinase receptor (Homo sapiens) (UniProt Q9UM73). Briefly: ALK(h) Eurofins kinase panel. The following applies: Compound concentration 1.0 uM.
For assay [6], the target named is Cyclin-dependent kinase 5/CDK5 activator 1 (Homo sapiens) (UniProt Q00535+Q15078). Briefly: CDK5/p25(h) Eurofins kinase panel. The settings on record: Compound concentration 1.0 uM. The format is protein-complex assay.
The subject of the next assay is LS174T. Briefly: LS-174T cell line Proliferation assay. The class given is functional, Homo sapiens. The following applies: time 3 day.
Assay [7] has as its target Dual specificity protein kinase CLK3 (Homo sapiens) (UniProt P49761). Briefly: CLK3(h) Eurofins kinase panel. The following applies: Compound concentration 1.0 uM.
Assay [8] has as its target Calcium/calmodulin-dependent protein kinase kinase 1 (Homo sapiens) (UniProt Q8N5S9). Briefly: CaMKK1(h) Eurofins kinase panel. The following applies: Compound concentration 1.0 uM.
Assay [9] addresses Tyrosine-protein kinase HCK (Homo sapiens) (UniProt P08631). Briefly: Hck(h) Eurofins kinase panel. The settings on record: Compound concentration 1.0 uM.
In assay [10] the target is T2, Mitogen-activated protein kinase kinase kinase 7 (Homo sapiens) (UniProt O43318).
T2 sequence (whole entry): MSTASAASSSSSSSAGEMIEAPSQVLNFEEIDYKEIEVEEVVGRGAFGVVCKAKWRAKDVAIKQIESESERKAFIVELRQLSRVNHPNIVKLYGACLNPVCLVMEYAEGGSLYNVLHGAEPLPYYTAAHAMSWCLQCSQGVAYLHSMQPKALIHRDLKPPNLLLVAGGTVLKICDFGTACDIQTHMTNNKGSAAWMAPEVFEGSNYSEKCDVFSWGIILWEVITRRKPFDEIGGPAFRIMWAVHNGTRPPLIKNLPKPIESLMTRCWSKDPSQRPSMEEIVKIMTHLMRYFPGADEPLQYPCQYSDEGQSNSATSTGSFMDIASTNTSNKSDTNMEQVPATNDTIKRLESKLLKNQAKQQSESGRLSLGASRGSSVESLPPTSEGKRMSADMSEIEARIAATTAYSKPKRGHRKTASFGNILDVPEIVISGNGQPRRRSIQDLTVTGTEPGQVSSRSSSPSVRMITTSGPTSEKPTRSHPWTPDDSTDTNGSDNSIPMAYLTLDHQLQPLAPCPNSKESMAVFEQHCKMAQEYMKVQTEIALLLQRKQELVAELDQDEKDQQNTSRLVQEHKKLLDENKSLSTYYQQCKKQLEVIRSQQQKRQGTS
Briefly: TAK1(h) Eurofins kinase panel. The following applies: Compound concentration 1.0 uM.

For assay [11], the target named is Death-associated protein kinase 1 (Homo sapiens) (UniProt P53355). Briefly: DAPK1(h) Eurofins kinase panel. The settings on record: Compound concentration 1.0 uM.
In assay [12] the target is Phosphatidylinositol 4,5-bisphosphate 3-kinase catalytic subunit gamma isoform (Homo sapiens) (UniProt P48736). Briefly: PI3 Kinase (p120g)(h) Eurofins kinase panel. The following applies: Compound concentration 1.0 uM.
In assay [13] the target is Dual specificity tyrosine-phosphorylation-regulated kinase 1A (Homo sapiens) (UniProt Q13627). Briefly: DYRK1A(h) Eurofins kinase panel. The settings on record: Compound concentration 1.0 uM.
Assay [14] concerns the target T3, Protein kinase C epsilon type (Homo sapiens) (UniProt Q02156).
T3 sequence (whole entry): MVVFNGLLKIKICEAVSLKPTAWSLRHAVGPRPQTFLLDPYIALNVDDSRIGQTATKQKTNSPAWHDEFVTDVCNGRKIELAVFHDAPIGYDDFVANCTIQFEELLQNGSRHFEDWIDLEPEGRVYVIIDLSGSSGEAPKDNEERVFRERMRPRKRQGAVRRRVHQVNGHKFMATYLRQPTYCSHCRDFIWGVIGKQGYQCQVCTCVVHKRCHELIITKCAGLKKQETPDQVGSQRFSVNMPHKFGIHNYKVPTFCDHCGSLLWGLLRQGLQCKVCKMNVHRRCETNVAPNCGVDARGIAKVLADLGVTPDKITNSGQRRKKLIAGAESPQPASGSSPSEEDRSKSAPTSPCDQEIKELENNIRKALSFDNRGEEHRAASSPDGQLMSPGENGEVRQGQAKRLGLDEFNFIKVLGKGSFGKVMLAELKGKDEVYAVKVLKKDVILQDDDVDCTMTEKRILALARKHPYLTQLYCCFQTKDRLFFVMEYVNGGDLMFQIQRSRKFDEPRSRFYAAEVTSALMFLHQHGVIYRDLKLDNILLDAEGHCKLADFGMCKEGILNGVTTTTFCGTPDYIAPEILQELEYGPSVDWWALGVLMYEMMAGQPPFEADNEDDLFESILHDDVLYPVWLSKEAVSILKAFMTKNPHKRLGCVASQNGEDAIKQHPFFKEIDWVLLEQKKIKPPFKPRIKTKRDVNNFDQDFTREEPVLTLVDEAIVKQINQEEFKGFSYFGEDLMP
Briefly: PKCepsilon (h) Eurofins kinase panel. The settings on record: Compound concentration 1.0 uM.

Chain of PI3K p110 beta/p85 alpha (Homo sapiens) (P27986 2-724 limits assumed): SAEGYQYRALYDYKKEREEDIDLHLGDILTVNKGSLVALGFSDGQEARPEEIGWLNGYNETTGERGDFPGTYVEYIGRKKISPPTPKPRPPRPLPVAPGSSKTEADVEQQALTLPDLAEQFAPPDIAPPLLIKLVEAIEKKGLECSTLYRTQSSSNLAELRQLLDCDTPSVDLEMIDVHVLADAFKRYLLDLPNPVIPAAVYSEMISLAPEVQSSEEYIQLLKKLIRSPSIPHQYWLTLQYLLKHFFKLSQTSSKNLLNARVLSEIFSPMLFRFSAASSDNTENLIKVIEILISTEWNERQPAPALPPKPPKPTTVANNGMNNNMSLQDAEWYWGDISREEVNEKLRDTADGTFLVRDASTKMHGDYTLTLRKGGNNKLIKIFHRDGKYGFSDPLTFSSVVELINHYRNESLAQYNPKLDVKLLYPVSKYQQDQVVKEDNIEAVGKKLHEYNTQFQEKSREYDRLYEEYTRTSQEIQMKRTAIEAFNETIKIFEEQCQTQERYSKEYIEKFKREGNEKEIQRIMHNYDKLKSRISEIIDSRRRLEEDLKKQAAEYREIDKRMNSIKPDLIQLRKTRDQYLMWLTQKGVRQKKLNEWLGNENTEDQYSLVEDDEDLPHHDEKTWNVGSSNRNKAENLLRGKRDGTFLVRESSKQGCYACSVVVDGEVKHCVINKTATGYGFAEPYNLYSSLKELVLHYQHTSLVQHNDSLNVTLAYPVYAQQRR
Chain of PI3K p110 beta/p85 alpha (Homo sapiens) (P42338 whole entry partner): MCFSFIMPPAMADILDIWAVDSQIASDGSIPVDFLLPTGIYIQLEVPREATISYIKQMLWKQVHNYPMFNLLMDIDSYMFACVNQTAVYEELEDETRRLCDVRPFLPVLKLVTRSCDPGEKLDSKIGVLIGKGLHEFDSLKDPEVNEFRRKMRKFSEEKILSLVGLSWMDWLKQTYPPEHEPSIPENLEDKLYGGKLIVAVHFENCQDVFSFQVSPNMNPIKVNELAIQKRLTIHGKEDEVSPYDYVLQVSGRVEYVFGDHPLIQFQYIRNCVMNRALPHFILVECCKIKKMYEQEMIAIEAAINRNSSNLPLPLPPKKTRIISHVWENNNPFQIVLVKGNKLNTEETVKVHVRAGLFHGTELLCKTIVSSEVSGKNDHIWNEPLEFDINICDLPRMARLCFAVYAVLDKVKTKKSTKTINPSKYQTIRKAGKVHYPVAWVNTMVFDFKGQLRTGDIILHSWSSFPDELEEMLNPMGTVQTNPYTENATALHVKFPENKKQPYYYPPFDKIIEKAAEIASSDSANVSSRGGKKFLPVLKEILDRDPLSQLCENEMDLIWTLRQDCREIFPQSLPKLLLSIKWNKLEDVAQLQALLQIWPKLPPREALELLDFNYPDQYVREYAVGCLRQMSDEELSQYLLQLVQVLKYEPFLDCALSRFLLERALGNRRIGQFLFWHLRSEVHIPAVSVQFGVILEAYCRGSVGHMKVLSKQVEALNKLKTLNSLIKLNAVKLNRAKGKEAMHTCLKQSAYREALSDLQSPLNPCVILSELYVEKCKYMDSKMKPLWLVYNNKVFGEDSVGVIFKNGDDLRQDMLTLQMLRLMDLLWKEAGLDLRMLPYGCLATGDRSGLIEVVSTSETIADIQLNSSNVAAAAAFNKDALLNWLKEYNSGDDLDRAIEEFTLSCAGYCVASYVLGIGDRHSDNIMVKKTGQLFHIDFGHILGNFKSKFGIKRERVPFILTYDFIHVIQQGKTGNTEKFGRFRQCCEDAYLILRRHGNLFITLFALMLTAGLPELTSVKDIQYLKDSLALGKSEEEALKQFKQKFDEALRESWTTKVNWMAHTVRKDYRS
Chain of ALK tyrosine kinase receptor (Homo sapiens) (Q9UM73 19-1620 limits assumed): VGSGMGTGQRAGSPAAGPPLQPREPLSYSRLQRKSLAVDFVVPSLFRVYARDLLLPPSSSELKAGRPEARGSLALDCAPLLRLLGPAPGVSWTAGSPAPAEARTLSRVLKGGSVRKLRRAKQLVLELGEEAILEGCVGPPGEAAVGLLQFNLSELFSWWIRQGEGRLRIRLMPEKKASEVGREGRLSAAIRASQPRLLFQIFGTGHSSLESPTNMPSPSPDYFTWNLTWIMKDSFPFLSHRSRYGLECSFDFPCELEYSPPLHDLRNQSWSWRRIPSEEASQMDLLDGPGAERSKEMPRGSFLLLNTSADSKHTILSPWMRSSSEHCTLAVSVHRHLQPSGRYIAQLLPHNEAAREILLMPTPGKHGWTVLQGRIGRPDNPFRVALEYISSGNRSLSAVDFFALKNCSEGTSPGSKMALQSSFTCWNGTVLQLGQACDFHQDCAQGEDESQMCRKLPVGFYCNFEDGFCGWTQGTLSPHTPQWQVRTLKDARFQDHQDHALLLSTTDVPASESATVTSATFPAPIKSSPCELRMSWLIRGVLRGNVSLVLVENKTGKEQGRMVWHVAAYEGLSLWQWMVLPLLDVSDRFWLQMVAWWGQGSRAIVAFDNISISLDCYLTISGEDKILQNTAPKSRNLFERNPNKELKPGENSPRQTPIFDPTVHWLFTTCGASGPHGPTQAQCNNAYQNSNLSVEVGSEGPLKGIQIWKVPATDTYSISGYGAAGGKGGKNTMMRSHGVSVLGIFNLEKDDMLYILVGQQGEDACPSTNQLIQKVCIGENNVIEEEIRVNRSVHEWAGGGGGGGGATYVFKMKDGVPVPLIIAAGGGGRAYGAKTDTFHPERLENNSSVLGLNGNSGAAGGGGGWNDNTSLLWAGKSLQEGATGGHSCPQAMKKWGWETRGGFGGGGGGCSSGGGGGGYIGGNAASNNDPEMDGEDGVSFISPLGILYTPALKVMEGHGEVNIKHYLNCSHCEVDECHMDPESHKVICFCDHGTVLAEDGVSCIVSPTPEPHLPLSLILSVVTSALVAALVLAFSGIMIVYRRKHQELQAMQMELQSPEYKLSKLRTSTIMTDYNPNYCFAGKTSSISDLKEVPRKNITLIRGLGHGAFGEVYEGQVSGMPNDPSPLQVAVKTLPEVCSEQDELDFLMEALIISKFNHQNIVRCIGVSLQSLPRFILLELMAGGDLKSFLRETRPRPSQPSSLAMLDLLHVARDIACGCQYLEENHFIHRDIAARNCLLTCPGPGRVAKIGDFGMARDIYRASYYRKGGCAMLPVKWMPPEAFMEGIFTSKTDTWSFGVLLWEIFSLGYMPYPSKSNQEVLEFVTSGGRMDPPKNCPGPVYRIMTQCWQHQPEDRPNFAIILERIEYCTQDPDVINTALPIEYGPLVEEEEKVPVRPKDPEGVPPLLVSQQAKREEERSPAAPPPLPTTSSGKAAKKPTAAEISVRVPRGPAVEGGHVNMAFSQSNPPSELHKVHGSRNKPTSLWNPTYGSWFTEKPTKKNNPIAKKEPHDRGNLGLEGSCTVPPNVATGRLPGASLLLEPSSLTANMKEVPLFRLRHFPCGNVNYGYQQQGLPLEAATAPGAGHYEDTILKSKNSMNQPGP
Chain of Calcium/calmodulin-dependent protein kinase kinase 1 (Homo sapiens) (Q8N5S9 whole entry, looked up): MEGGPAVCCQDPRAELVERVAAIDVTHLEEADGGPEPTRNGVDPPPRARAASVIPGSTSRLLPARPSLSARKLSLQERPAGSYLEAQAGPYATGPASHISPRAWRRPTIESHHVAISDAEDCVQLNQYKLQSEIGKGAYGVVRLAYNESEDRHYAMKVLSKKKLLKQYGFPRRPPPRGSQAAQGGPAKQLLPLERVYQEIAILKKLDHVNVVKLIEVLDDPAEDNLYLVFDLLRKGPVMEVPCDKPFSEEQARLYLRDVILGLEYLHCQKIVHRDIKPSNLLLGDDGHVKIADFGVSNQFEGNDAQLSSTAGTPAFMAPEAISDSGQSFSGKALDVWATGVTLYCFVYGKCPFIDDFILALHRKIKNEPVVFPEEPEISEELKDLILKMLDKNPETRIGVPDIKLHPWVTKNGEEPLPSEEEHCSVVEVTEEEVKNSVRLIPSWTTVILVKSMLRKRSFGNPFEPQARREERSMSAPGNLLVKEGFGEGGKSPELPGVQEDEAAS
Chain of Serine/threonine-protein kinase pim-2 (Homo sapiens) (Q9P1W9 whole entry, looked up): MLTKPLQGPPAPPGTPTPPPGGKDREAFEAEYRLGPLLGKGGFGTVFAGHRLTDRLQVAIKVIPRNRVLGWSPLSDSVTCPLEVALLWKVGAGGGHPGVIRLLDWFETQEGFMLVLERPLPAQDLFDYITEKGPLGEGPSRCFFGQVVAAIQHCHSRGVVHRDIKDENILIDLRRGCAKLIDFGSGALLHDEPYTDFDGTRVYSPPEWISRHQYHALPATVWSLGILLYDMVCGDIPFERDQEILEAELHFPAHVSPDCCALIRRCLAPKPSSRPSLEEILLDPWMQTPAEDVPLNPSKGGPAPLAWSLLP
Chain of Tyrosine-protein kinase HCK (Homo sapiens) (P08631 2-526 limits assumed): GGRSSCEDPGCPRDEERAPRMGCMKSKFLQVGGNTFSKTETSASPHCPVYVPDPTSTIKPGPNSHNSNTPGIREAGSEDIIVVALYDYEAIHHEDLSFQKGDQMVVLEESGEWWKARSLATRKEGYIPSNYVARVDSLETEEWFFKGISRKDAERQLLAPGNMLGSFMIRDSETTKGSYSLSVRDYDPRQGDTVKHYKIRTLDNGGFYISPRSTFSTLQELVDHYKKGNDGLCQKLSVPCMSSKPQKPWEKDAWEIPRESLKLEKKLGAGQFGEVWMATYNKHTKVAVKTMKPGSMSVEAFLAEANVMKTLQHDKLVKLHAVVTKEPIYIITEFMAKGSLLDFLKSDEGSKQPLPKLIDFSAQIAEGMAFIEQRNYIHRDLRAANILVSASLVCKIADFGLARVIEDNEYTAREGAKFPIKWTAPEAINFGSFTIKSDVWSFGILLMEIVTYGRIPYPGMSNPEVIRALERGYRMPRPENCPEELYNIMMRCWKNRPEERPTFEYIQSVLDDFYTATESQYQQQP

Regarding `CCc1ccccc1C(=O)Nc1n[nH]c2c(C)c(F)c(C3C(C#N)=C(C)N(C)C(C)=C3C#N)cc12` [BAY-3827], the % residual kinase activity in assay [1] was 102%; in assay [2], 91%; in assay [3] it was 110%; in [4] it was 99%; in [5], 103%; in assay [6] it was 98%. Further, the % residual kinase activity in assay [7] is 109%; in assay [8] it was 95%; in [9] it was 88%; in assay [10] it was 104%; in assay [11], 100%; in [12], 99%. Further, the % residual kinase activity in assay [13] is 107%; in assay [14] it was 62%. The “Cell Proliferation IC50” value in the assay on LS174T was greater than 30 µM.

The values are drawn from ChEMBL document CHEMBL4507319 (2021).
